Data: US8106055B2, “Substituted amide compounds” (Gruenenthal GmbH, priority 2007, dated 2012)

The compounds below were run against T1, human μ opiate receptor (Homo sapiens, UniProt P35372) (assay: Affinity for the human μ opiate receptor ([3H]-naloxone displacement, CHO-K1 receptor membrane preparation, SPA)). Conditions: test concentration of 1 μM.
T1 construct: purchased PerkinElmer Life Sciences, Zaventem, Belgium RB-HOM; host or cells: CHO-K1 cells (membrane preparation)
Assay type: binding
Procedure, shortened: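 CHO-K1 membranes expressing human μ receptor incubated 90 min at room temperature with 1 nmol/l [3H]-naloxone and WGA-SPA beads in 50 mmol/l Tris-HCl, 0.06% BSA; 100 μmol/l naloxone defines non-specific binding. Values are % inhibition of specific binding at 1 μM; IC50 converted to Ki by Cheng-Prusoff.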

T1 sequence (P35372 whole entry): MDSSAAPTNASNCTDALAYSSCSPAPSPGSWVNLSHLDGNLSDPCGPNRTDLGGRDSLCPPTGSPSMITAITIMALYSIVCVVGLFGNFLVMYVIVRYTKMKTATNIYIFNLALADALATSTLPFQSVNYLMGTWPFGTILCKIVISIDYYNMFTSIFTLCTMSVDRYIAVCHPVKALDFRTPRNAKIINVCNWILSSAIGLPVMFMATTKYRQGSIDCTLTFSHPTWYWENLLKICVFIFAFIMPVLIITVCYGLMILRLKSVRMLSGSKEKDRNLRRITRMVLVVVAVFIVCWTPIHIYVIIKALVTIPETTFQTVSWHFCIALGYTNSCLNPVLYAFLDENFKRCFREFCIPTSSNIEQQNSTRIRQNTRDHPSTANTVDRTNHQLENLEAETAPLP

For Cc1cc(C)c(S(=O)(=O)N(C)CCOCC(=O)NC2CCC(C(c3ccccc3)N(C)C)CC2)c(C)c1 (stereo not drawn) [Example 63, N-(4-((dimethylamino)(phenyl)methyl)cyclohexyl)-2-(2-(N,2,4,6-tetramethylphenylsulfamido)ethoxy)acetamide], the “μ (binding on the μ opioid receptor, % inhibition)” value was 94%.

Same assay, conditions: test concentration of 1 μM; 1 µM

Point of comparison: COc1ccc(S(=O)(=O)N2CCCCC2COCC(=O)NCC2CCC(C(c3ccc(F)cc3)N(C)C)CC2)cc1OC (single isomer, unassigned) [Example 534], “μ (binding on the μ opioid receptor, % inhibition)” value 24%. Against it:
- COc1ccc(S(=O)(=O)N2CCCCC2COCC(=O)NCC2CCC(C(c3ccc(F)cc3)N(C)C)CC2)cc1OC (single isomer, unassigned) [Example 537] — higher, 35%

Same assay, conditions: test concentration of 1 μM; read-out: μ (binding on the μ opioid receptor, % inhibition)

Point of comparison: CN(C)C(c1cccs1)C1CCC(CNC(=O)COCC2CCCN(S(=O)(=O)c3ccccc3)C2)CC1 (stereo not drawn) [Example 101, N-((4-((dimethylamino)(thiophen-2-yl)methyl)cyclohexyl)methyl)-2-((1-(phenylsulfonyl)piperidin-3-yl)methoxy)acetamide], inhibition at 1 µM 92%. Against it:
- COc1ccc(S(=O)(=O)N2CCCCC2CCOCC(=O)NC2CCC(C(c3cccs3)N(C)C)CC2)cc1 (stereo not drawn) [Example 6, N-(4-((dimethylamino)(thiophen-2-yl)methyl)cyclohexyl)-2-(2-(1-(4-methoxyphenylsulfonyl)piperidin-2-yl)ethoxy)acetamide] — higher, 99%
- COc1ccc(S(=O)(=O)N2Cc3ccccc3CC2COCC(=O)NCC2CCC(C(c3cccs3)N(C)C)CC2)cc1 (stereo not drawn) [Example 7, N-((4-((dimethylamino)(thiophen-2-yl)methyl)cyclohexyl)methyl)-2-((2-(4-methoxyphenylsulfonyl)-1,2,3,4-tetrahydroisoquinolin-3-yl)methoxy)acetamide] — higher, 99%
- CN(C)C(c1cccs1)C1CCC(CNC(=O)COCCN(C)S(=O)(=O)c2ccc(Cl)cc2Cl)CC1 (stereo not drawn) [Example 8, 2-(2-(2,4-dichloro-N-methylphenylsulfonamido)ethoxy)-N-((4-((dimethylamino)(thiophen-2-yl)methyl)cyclohexyl)methyl)acetamide] — higher, 98%
- CN(C)C(c1cccs1)C1CCC(CCNC(=O)COC2CCN(S(=O)(=O)c3cccc(C(F)(F)F)c3)C2)CC1 (stereo not drawn) [Example 96, N-(2-(4-((dimethylamino)(thiophen-2-yl)methyl)cyclohexyl)ethyl)-2-(1-(3-(trifluoromethyl)phenylsulfonyl)pyrrolidin-3-yloxy)acetamide] — the same, 92%
- CN(C)C(c1cccs1)C1CCC(CNC(=O)COC2CCN(S(=O)(=O)c3ccc(F)cc3)C2)CC1 (stereo not drawn) [Example 97, N-((4-((dimethylamino)(thiophen-2-yl)methyl)cyclohexyl)methyl)-2-(1-(4-fluorophenylsulfonyl)pyrrolidin-3-yloxy)acetamide] — the same, 92%
- COc1cc(C)c(S(=O)(=O)N2CCC(OCC(=O)NC3CCC(C(c4cccs4)N(C)C)CC3)C2)c(C)c1 (stereo not drawn) [Example 98, N-(4-((dimethylamino)(thiophen-2-yl)methyl)cyclohexyl)-2-(1-(4-methoxy-2,6-dimethylphenylsulfonyl)pyrrolidin-3-yloxy)acetamide] — lower, 91%
- CN(C)C(c1cccs1)C1CCC(CCNC(=O)COCCN2CCN(S(=O)(=O)c3ccccc3)CC2)CC1 (stereo not drawn) [Example 99, N-(2-(4-((dimethylamino)(thiophen-2-yl)methyl)cyclohexyl)ethyl)-2-(2-(4-(phenylsulfonyl)piperazin-1-yl)ethoxy)acetamide] — the same, 92%
- CN(C)C(c1cccs1)C1CCC(CCNC(=O)COC2CCCN(S(=O)(=O)c3ccccc3)C2)CC1 (stereo not drawn) [Example 100, N-(2-(4-((dimethylamino)(thiophen-2-yl)methyl)cyclohexyl)ethyl)-2-(1-(phenylsulfonyl)piperidin-3-yloxy)acetamide] — higher, 94%
- CN(C)C(c1cccs1)C1CCC(CNC(=O)COCCN(Cc2ccccc2)S(=O)(=O)c2ccccc2)CC1 (stereo not drawn) [Example 102, 2-(2-(N-benzylphenylsulfonamido)ethoxy)-N-((4-((dimethylamino)(thiophen-2-yl)methyl)cyclohexyl)methyl)acetamide] — higher, 94%
- CCN(CCOCC(=O)NCCC1CCC(C(c2cccs2)N(C)C)CC1)S(=O)(=O)c1c(C)cc(OC)c(C)c1C (stereo not drawn) [Example 103, N-(2-(4-((dimethylamino)(thiophen-2-yl)methyl)cyclohexyl)ethyl)-2-(2-(N-ethyl-4-methoxy-2,3,6-trimethylphenylsulfonamido)ethoxy)acetamide] — higher, 94%
- COc1cc(C)c(S(=O)(=O)N2CCC(OCC(=O)NCC3CCC(C(c4cccs4)N(C)C)CC3)CC2)c(C)c1C (stereo not drawn) [Example 104, N-((4-((dimethylamino)(thiophen-2-yl)methyl)cyclohexyl)methyl)-2-(1-(4-methoxy-2,3,6-trimethylphenylsulfonyl)piperidin-4-yloxy)acetamide] — lower, 90%
- COc1ccc(S(=O)(=O)N2CCCC2COCC(=O)NCC2CCC(C(c3cccs3)N(C)C)CC2)cc1 (stereo not drawn) [Example 105, N-((4-((dimethylamino)(thiophen-2-yl)methyl)cyclohexyl)methyl)-2-((1-(4-methoxyphenylsulfonyl)pyrrolidin-2-yl)methoxy)acetamide] — higher, 93%
- COc1ccc(S(=O)(=O)N2CCCCC2COCC(=O)NCC2CCC(C(c3ccccc3)N(C)C)CC2)c(OC)c1 (stereo not drawn) [Example 106, 2-((1-(2,4-dimethoxyphenylsulfonyl)piperidin-2-yl)methoxy)-N-((4-((dimethylamino)(phenyl)methyl)cyclohexyl)methyl)acetamide] — the same, 92%
- COc1ccc(S(=O)(=O)N2CCCCC2COCC(=O)NCCC2CCC(C(c3cccs3)N(C)C)CC2)c(OC)c1 (stereo not drawn) [Example 107, 2-((1-(2,4-dimethoxyphenylsulfonyl)piperidin-2-yl)methoxy)-N-(2-(4-((dimethylamino)(thiophen-2-yl)methyl)cyclohexyl)ethyl)acetamide] — the same, 92%
- CN(C)C(c1ccccc1)C1CCC(CNC(=O)COCCN(C)S(=O)(=O)c2ccc(Cl)cc2)CC1 (stereo not drawn) [Example 110, 2-(2-(4-chloro-N-methylphenylsulfonamido)ethoxy)-N-((4-((dimethylamino) (phenyl)methyl)cyclohexyl)methyl)acetamide] — lower, 87%
- COc1cc(C)c(S(=O)(=O)N(C)CCOCC(=O)NC2CCC(C(c3cccs3)N(C)C)CC2)c(C)c1 (stereo not drawn) [Example 111, N-(4-((dimethylamino)(thiophen-2-yl)methyl)cyclohexyl)-2-(2-(4-methoxy-N,2,6-trimethylphenylsulfonamido)ethoxy)acetamide] — the same, 92%
- CN(C)C(c1ccccc1)C1CCC(CNC(=O)COCCN(C)S(=O)(=O)c2ccc(F)cc2)CC1 (stereo not drawn) [Example 112, N-((4-((dimethylamino)(phenyl)methyl)cyclohexyl)methyl)-2-(2-(4-fluoro-N-methylphenylsulfonamido)ethoxy)acetamide] — lower, 82%
- CN(C)C(c1ccccc1)C1CCC(CNC(=O)COC2CCN(S(=O)(=O)c3cccc(C(F)(F)F)c3)C2)CC1 (stereo not drawn) [Example 113, N-((4-((dimethylamino)(phenyl)methyl)cyclohexyl)methyl)-2-(1-(3-(trifluoromethyl)phenylsulfonyl)pyrrolidin-3-yloxy)acetamide] — lower, 90%
- CN(C)C(c1ccccc1)C1CCC(CNC(=O)COC2CCCN(S(=O)(=O)c3ccccc3)C2)CC1 (stereo not drawn) [Example 114, N-((4-((dimethylamino)(phenyl)methyl)cyclohexyl)methyl)-2-(1-(phenylsulfonyl)piperidin-3-yloxy)acetamide] — lower, 85%
- CN(C)C(c1cccs1)C1CCC(CCNC(=O)COCC2CCCN(S(=O)(=O)c3ccccc3)C2)CC1 (stereo not drawn) [Example 115, N-(2-(4-((dimethylamino)(thiophen-2-yl)methyl)cyclohexyl)ethyl)-2-((1-(phenylsulfonyl)piperidin-3-yl)methoxy)acetamide] — lower, 91%
- CN(C)C(c1cccs1)C1CCC(CCNC(=O)COCCN(Cc2ccccc2)S(=O)(=O)c2ccccc2)CC1 (stereo not drawn) [Example 116, 2-(2-(N-benzylphenylsulfonamido)ethoxy)-N-(2-(4-((dimethylamino)(thiophen-2-yl)methyl)cyclohexyl)ethyl)acetamide] — lower, 91%
- CCN(CCOCC(=O)NCC1CCC(C(c2cccc(F)c2)N(C)C)CC1)S(=O)(=O)c1c(C)cc(OC)c(C)c1C (stereo not drawn) [Example 117, N-((4-((dimethylamino)(3-fluorophenyl)methyl)cyclohexyl)methyl)-2-(2-(N-ethyl-4-methoxy-2,3,6-trimethylphenylsulfonamido)ethoxy)acetamide] — the same, 92%
- COc1cc(C)c(S(=O)(=O)N2CCC(CCOCC(=O)NC3CCC(C(c4cccc(F)c4)N(C)C)CC3)CC2)c(C)c1C (stereo not drawn) [Example 118, N-(4-((dimethylamino)(3-fluorophenyl)methyl)cyclohexyl)-2-(2-(1-(4-methoxy-2,3,6-trimethylphenylsulfonyl)piperidin-4-yl)ethoxy)acetamide] — lower, 90%
- CN(C)C(c1cccc(F)c1)C1CCC(CNC(=O)COCC2CCCN2S(=O)(=O)c2ccc(Cl)c(Cl)c2)CC1 (stereo not drawn) [Example 119, 2-((1-(3,4-dichlorophenylsulfonyl)pyrrolidin-2-yl)methoxy)-N-((4-((dimethylamino)(3-fluorophenyl)methyl)cyclohexyl)methyl)acetamide] — lower, 90%
- COc1ccc(S(=O)(=O)N2CCCCC2COCC(=O)NCCC2CCC(C(c3cccs3)N(C)C)CC2)cc1OC (stereo not drawn) [Example 120, 2-((1-(3,4-dimethoxyphenylsulfonyl)piperidin-2-yl)methoxy)-N-(2-(4-((dimethylamino)(thiophen-2-yl)methyl)cyclohexyl)ethyl)acetamide] — the same, 92%
- Cc1ccc(S(=O)(=O)N2CCC(OCC(=O)NCC3CCC(C(c4ccccc4)N(C)C)CC3)C2)cc1 (stereo not drawn) [Example 125, N-((4-((dimethylamino)(phenyl)methyl)cyclohexyl)methyl)-2-(1-tosylpyrrolidin-3-yloxy)acetamide] — lower, 91%
